This is an account of results in PMC9119314 (Frontiers in Pharmacology, 2022).

Structures are written as SMILES.

One assay has as its system P. falciparum K1. The assay is described as follows: In vitro antiplasmodial activity, P. falciparum K1 (lactate dehydrogenase assay). The following applies: Plasmodium falciparum; chloroquine-resistant strain K1, 48 h, mean ± SE; read-out: Activity against P. falciparum K1, IC50. The assay is classed as cell-based, Plasmodium falciparum. As for the experimental part: P. falciparum (K1 clone) was maintained in human erythrocytes prepared from the donated blood samples (blood groups unknown, Ethical Tissue, University of Bradford), suspended in the RPMI 1640 medium as previously described ([Wright et al., 2001]), except that serum was replaced with Albumax II, [5% (^w/v)]. […] Twofold serial dilutions were made in 96-well microtiter plates in duplicate, and infected erythrocytes were added to give a final volume of 100 µL with 2.5% hematocrit and 1% parasitemia. Chloroquine diphosphate was used as a positive control, and uninfected and infected erythrocytes without compounds were included in each test. The plates were placed into a modular incubator; gassed with 93% nitrogen, 3% oxygen, and 4% carbon dioxide; and incubated at 37°C for 48 h. The parasite growth was assessed by measuring lactate dehydrogenase activity as described by [Makler et al. (1993)]. The reagent used contained the following in each mL: acetylpyridine adenine dinucleotide (APAD), 0.74 mg; lithium lactate, 19.2 mg; diaphorase, 0.1 mg; Triton X-100, 2 μL; nitroblue tetrazolium, 1 mg; and phenazine ethosulphate, 0.5 mg. Fifty microliter of this reagent was added to each well and mixed; plates were incubated for 15 min at 37°C. The optical densities were read at 550 nm using an Azure 96-well microplate reader (Azure Biosystems Inc.), and % inhibition of growth was calculated by comparison with the control values. IC50 values were determined using linear regression analysis (Microsoft Excel). A minimum of three separate determinations was carried out for each compound.

A further assay has as its system P. falciparum 3D7. The assay is described as follows: In vitro antiplasmodial activity, P. falciparum 3D7 (SYBR Green I). Type of assay: cell-based. The following applies: Plasmodium falciparum; chloroquine-sensitive strain 3D7, 48 h; read-out: Activity against P. falciparum 3D7, IC50. As for the experimental part:
(§1) P. falciparum (3D7 clone) and P. knowlesi (A1-H.1 clone) were maintained in culture in RPMI 1640 supplemented with 25 mM HEPES, 25 mM NaHCO3, 10 mM D-glucose, 2 mM L-glutamine, 50 mg/L hypoxanthine, 25 mg/L gentamicin sulfate, 5 g/L Albumax II, and 10% (v/v) equine serum (Thermo Fisher Scientific, 26-050-088). The P. falciparum (3D7) and P. knowlesi (A1-H.1) parasites were grown in human A^+ red blood cells (National Health Blood and Transplant, United Kingdom). The parasites were incubated in sealed flasks at 37°C under a culture gas mixture of 96% N2, 3% CO2, and 1% O2. ([van Schalkwyk et al., 2019]). The compounds were initially dissolved in DMSO prior to diluting in RPMI. All experiments were initiated using unsynchronized parasites with both the parasitemia and hematocrit set to 1%. Drug susceptibility assays were set up in 96-well, flat-bottom microplates in a final volume of 200 μL, as described previously ([van Schalkwyk et al., 2017]). The controls were included for the background fluorescence (0% viability; parasites exposed to a supralethal 10 μM chloroquine concentration) and 100% growth (parasites in drug-free wells). The plates were incubated for one complete life cycle (27 h for P. knowlesi or 48 h for P. falciparum in vitro) at 37°C in a modular incubation chamber (Billups-Rothenburg Inc.) under the culture gas. Upon termination of the assay, the plates were stored at −20°C overnight. The SYBR Green I fluorescent method was used to measure parasite survival ([Bennett et al., 2004]; [Smilkstein et al., 2004]). After the microplates were thawed, 100 μL from each well was transferred into a duplicate plate. To this was added 100 μL of SYBR green solution [SYBR Green I (Thermo Fisher Scientific, S7563), diluted 1:5000 in a lysis buffer made of 20 mM Tris, 5 mM EDTA, 0.008% (w/v) saponin, 0.08% (v/v) Triton X-100, pH 7.5]. The plates were stored in the dark for 1 h before fluorescence was read at a 490 nm excitation wavelength and a 520 nm emission wavelength on a Spectramax M3 microplate reader (Molecular Devices) ([van Schalkwyk et al., 2017]). The background fluorescence (wells with parasites at 0% viability) was subtracted from all drug assay wells, and the parasite proliferation was determined as a percentage of the fluorescence in the drug-free control wells.

In the next assay the test system is P. knowlesi A1-H.1. The assay is described as follows: In vitro antiplasmodial activity, P. knowlesi A1-H.1 (SYBR Green I). The following applies: Plasmodium knowlesi, 27 h, read-out: Activity against P. knowlesi A1-H.1, IC50, 27 h, ± SD. Type of assay: cell-based, Plasmodium knowlesi. The protocol:
as §1

The test system of assay [1] is P. falciparum (NF54-Mal8p1.16-GFP-Luc) late-stage gametocytes. The assay is described as follows: microbe, parasite or virus in culture. Type of assay: cell-based, Plasmodium falciparum. The following applies: Plasmodium falciparum, NF54, 48 h, read-out: Activity against late-stage gametocytes IC50. As for the experimental part:
Gametocytes were produced as per [Reader et al. (2015]; [2021)] from P. falciparum NF54-Mal8p1.16-GFP-Luc ([Adjalley et al., 2011]), and each batch was validated for viability and functionality before use. […] Drug assays were set up on day 10 (representing late gametocytes, >90% stage IV/V gametocytes) using a 2–3% gametocytemia, 1.5% hematocrit culture. The drug pressure was for 48 h under stationary, hypoxic conditions (90% N2, 5% O2, and 5% CO2) at 37°C. Luciferase activity was determined in 30 μL parasite lysates by adding 30 μL luciferin substrate (Promega Luciferase Assay System) at room temperature and detection of resultant bioluminescence at an integration constant of 10 s with the GloMax®-Multi + Detection System with Instinct® Software. Methylene blue (5 μM) and an internal control (MMV390048, 5 μM) were routinely included as controls.

For a further assay, the system named is A2780/WT cells. The assay is described as follows: Chemosensitivity MTT assay, A2780 wild type. Type of assay: cell-based, human. The following applies: Homo sapiens, A2780, 96 h, ± SE, read-out: Activity against A2780/WT cells, IC50. The protocol: (§2) The chemosensitivity of compounds 3–6 was assessed in the wild-type immortalized human ovarian adenocarcinoma cell line A2780 and its daughter cell lines, which are resistant to the standard cancer chemotherapeutics doxorubicin (A2780/ADR) and cisplatin (A2780/CIS, all cell lines from ECACC, Salisbury, United Kingdom). A modified MTT assay was used ([Shnyder et al., 2008]). Cells (2 × 10^4/ml) were inoculated into each well of a 96-well plate and incubated for 24 h at 37°C in a humidified atmosphere containing 5% CO2. Compounds were then added at a range of concentrations to each well, and the plates were then incubated for a further 96 h. After 96 h, the culture medium was removed and 200 μL of 0.5 mg ml^–1 MTT solution (Sigma) in the complete medium was added to each well. Following a further 4 h incubation, the solution was removed from each well and 150 μL of DMSO was added to solubilize the formazan crystals resulting from MTT conversion. The absorbance values for the resulting solutions were read at 540 nm on an Azure 96-well microplate reader (Azure Biosynstems Inc.), and the cell survival was calculated as the absorbance of treated cells divided by the control.
Background: Tetrazolium dyes change colour on reduction, which living cells bring about.

A further assay concerns A2780/ADR cells. The assay is described as follows: Chemosensitivity MTT assay, doxorubicin-resistant A2780/ADR. Type of assay: cell-based. The following applies: Homo sapiens, 96 h, ± SE, read-out: Activity against A2780/ADR cells, IC50. The protocol:
as §2, with “A” for “The chemosensitivity of compounds 3–6 was assessed in the wild-type immortalized human ovarian adenocarcinoma cell line A2780 and its daughter cell lines, which are resistant to the standard cancer chemotherapeutics doxorubicin (A2780/ADR) and cisplatin (A2780/CIS, all cell lines from ECACC, Salisbury, United Kingdom). A”

In the next assay the test system is A2780/cis cells. The assay is described as follows: Chemosensitivity MTT assay, cisplatin-resistant A2780/CIS. Type of assay: cell-based, human. The following applies: Homo sapiens, A2780cis, 96 h, ± SE, read-out: Activity against A2780/cis cells, IC50. The protocol:
as §2

Assay [2] concerns T. brucei bloodstream forms (strain 427, derivative 221). The following applies: ref Oluwafemi et al. 2009; read-out: Activity against T. brucei IC50; cited from earlier work.
In a further assay the test system is P. berghei. The following applies: P. berghei in mice, oral, 50 mg/kg/day; ref Wright et al., 1996; cited from earlier work.
In assay [3] the test system is P. falciparum gametocytes. The arrangement: method as in Forkuo et al., 2017. The following applies: ref Forkuo et al., 2017; read-out: IC50 against gametocytes, previous data; cited from earlier work.

With `Cn1c2c3ccccc3nc-2cc2ccccc21` [Compound 1, cryptolepine], the IC50 with P. falciparum K1 stood at 440 ± 220 nM; with P. falciparum 3D7, 460 ± 40 nM; in the assay on P. knowlesi A1-H.1, 1040 ± 23 nM; in assay [1] it was 2400 ± 300 nM; in the assay on A2780/WT cells, 440 ± 200 nM; with A2780/ADR cells it was 1270 ± 600 nM. Moreover, the values for the IC50 (in the assay on A2780/cis cells; in [2]; in [3]) were 670 ± 390 nM, 306 nM and 1970 nM, respectively. Besides, the “Suppression of parasitemia compared to untreated infected controls” value in the assay with P. berghei was 80.5%.
